Measured values published in paper PMC4038554, “Human CD4^+ T Cell Responses to the Dog Major Allergen Can f 1 and Its Human Homologue Tear Lipocalin Resemble Each Other” (PLoS ONE, 2014).

What was measured:
Test in all cases: HLA class II peptide-binding assay (competitive ELISA)
DRB1*0101 = DRB1*0101 (Homo sapiens, UniProt P01903+P01911, A100R/D57E/F55L/F60I/F76Y/I96L/L162R/M171V/P40L/Q125E/R42F/V115G/Y59C); details: immunopurified HLA, reference peptide IC50 3 nM, ratio ≤20 high affinity, 20–200 moderate affinity
DRB1*0301 = DRB1*0301 (Homo sapiens, UniProt P01903+P01911, A100K/A102G/A103R/A169T/F55Y/I96L/K41T/L162R/M171V/P40S/Q125H/Q178H/Q39Y/R42S/S66N/T106N/T262R/W38E/Y61H); details: immunopurified HLA, reference peptide IC50 423 nM, ratio ≤20 high affinity, 20–200 moderate affinity
DRB1*0401 = DRB1*0401 (Homo sapiens, UniProt P01903+P01911, A100K/A169T/F76Y/I96L/K127E/L162R/M171V/N62H/P40V/Q125Y/R42H/S133A/S149N/S66Y/V115G/V209L/W38E); details: immunopurified HLA, reference peptide IC50 8 nM, ratio ≤20 high affinity, 20–200 moderate affinity
DRB1*0701 = DRB1*0701 (Homo sapiens, UniProt P01903+P01911, A100R/A102G/A103Q/D57E/D86V/E43K/F76Y/K127E/L162R/M171V/P40G/Q125H/Q99D/R33Q/R42Y/R54Q/S133A/S66F/T210M/V115G/Y107V/Y59L/Y89S); details: immunopurified HLA, reference peptide IC50 5 nM, ratio ≤20 high affinity, 20–200 moderate affinity
DRB1*1101 = DRB1*1101 (Homo sapiens, UniProt P01903+P01911, A100R/A169T/A87E/I96F/K41T/L162R/M171V/P40S/Q125H/Q178H/Q39Y/Q99D/R42S/S66Y/T262R/V115G/W38E); details: immunopurified HLA, reference peptide IC50 50 nM, ratio ≤20 high affinity, 20–200 moderate affinity
DRB1*1301 = DRB1*1301 (Homo sapiens, UniProt P01903+P01911, A100E/A169T/K41T/L162R/M171V/P40S/Q125H/Q178H/Q39Y/Q99D/R42S/S66N/T262R/W38E/Y61H); details: immunopurified HLA, reference peptide IC50 208 nM, ratio ≤20 high affinity, 20–200 moderate affinity
DRB1*1501 = DRB1*1501 (Homo sapiens, UniProt P01903+P01911); details: immunopurified HLA, reference peptide IC50 775 nM, ratio ≤20 high affinity, 20–200 moderate affinity
DRB3 = test system: DRB3; design: species or system human; details: DRB3; competitive ELISA, immunopurified HLA; reference peptide IC50 60 nM; ratio ≤20 high affinity, 20–200 moderate affinity
DRB4 = test system: DRB4; design: species or system human; details: DRB4; competitive ELISA, immunopurified HLA; reference peptide IC50 8 nM; ratio ≤20 high affinity, 20–200 moderate affinity
DRB5 = test system: DRB5; design: species or system human; details: DRB5; competitive ELISA, immunopurified HLA; reference peptide IC50 7 nM; ratio ≤20 high affinity, 20–200 moderate affinity

Sequence	relative binding ratio (IC50 of the test peptide divided by IC50 of the reference peptide) (DRB1*0101)	relative binding ratio (IC50 of the test peptide divided by IC50 of the reference peptide) (DRB1*0301)	relative binding ratio (IC50 of the test peptide divided by IC50 of the reference peptide) (DRB1*0401)	relative binding ratio (IC50 of the test peptide divided by IC50 of the reference peptide) (DRB1*0701)	relative binding ratio (IC50 of the test peptide divided by IC50 of the reference peptide) (DRB1*1101)	relative binding ratio (IC50 of the test peptide divided by IC50 of the reference peptide) (DRB1*1301)	relative binding ratio (IC50 of the test peptide divided by IC50 of the reference peptide) (DRB1*1501)	relative binding ratio (IC50 of the test peptide divided by IC50 of the reference peptide) (DRB3)	relative binding ratio (IC50 of the test peptide divided by IC50 of the reference peptide) (DRB4)	relative binding ratio (IC50 of the test peptide divided by IC50 of the reference peptide) (DRB5)
ESILIPRQSETCSPGSD [pTL9, Tear lipocalin peptide p142–158]	569	> 236	> 1 260	> 1 874	> 200	> 481	> 13	> 167	> 1 179	> 1 443
HYIFYCEGELHGKPVR [pTL6, Tear lipocalin peptide p96–111]	31	> 236	3	2 222	3	> 481	5	> 167	121	16
GKHVAYIIRSHVKDHY [pTL5, Tear lipocalin peptide p82–97]	209	7	120	447	0.3	5	> 13	> 167	> 1 179	1
KPVRGVKLVGRDPKNNL [pTL7, Tear lipocalin peptide p108–124]	> 3844	8	> 1 260	> 1 874	105	236	> 13	> 167	> 1 179	> 1 443
EILELAQSETCSPGGQ [pC9, Can f 1 peptide p141–156]	54	> 236	113	230	> 200	> 481	> 13	> 167	> 1 179	> 1 443
HYILYCEGELHGRQIR [pC6, Can f 1 peptide p95–110]	48	14	91	644	78	40	7	> 167	62	50
GQRVVFIQPSPVRDHY [pC5, Can f 1 peptide p81–96]	1	28	101	61	179	33	7	> 167	1 054	3
KPDSVTPMILKAQKGGNL [pC2, Can f 1 peptide p31–48]	141	1	72	> 1 874	11	26	> 13	1	> 1 179	144
ALEDFREFSRAKGLNQ [pC8, Can f 1 peptide p125–140]	155	> 236	189	71	2	245	> 13	> 167	> 1 179	101
LEAKITMLTNGQCQNIT [pC3, Can f 1 peptide p48–64]	4	33	50	103	89	471	2	> 167	> 1 179	339
GKWYLKAMTADQEVPE [pC1, Can f 1 peptide p15–30]	32	1	1	75	70	26	8	> 167	29	72
